Measurements: US11154589B2, “Antimicrobial composition combinations comprising star shaped peptide polymers” (The University of Melbourne, priority 2016, dated 2021)
≈ marks a conversion by molar mass, not a printed value. Like-named read-outs stand apart in the source and are kept apart here. Marks after values point to notes of the source that are not given here.

How the values were obtained:
[1] = tested on: CMDR P. aeruginosa (FADDI-PA067); test: MBC determination (in vitro antimicrobial experiment, CFU counting); assay type: cell-based, Pseudomonas aeruginosa; conditions: compound alone
Description: (§1) Freeze-dried cultures of Escherichia coli (E. coli, ATCC 25922), Klebsiella pneumoniae (K. pneumoniae, ATCC 13883), Pseudomonas aeruginosa (P. aeruginosa, ATCC 47085), Acinetobacter baumannii (A. baumannii, ATCC 19606), colistin and multidrug-resistant (CMDR) A. baumannii (FADDI-AB156), and CMDR P. aeruginosa (FADDI-PA067) were grown aerobically and maintained by passage at ambient temperature on horse blood agar (10% v/v defibrinated horse blood, 4.4% w/v Oxoid Blood Agar Base No. 2). Overnight cultures were made from transferring a colony (ca. half a loop) from the agar plates to culture tubes containing sterilized Luria-Bertani broth (LB, 1% w/v Bacto™ Tryptone, 1% w/v NaCl, 0.5% w/v Oxoid Yeast Extract) (20 mL). Bacterial cultures were incubated overnight at 37° C. with aeration and without agitation, with the exception of the two P. aeruginosa strains (ATCC 47085 and FADDI-PA067) which were cultured at 37° C. with aeration and agitation (150 rpm). On the next day, for E. coli, K. pneumonia, P. aeruginosa (ATCC 47085), and CMDR P. aeruginosa (FADDI-PA067), small aliquots (i.e., 0.5-3 mL) were taken from the culture tubes, further diluted with LB (20 mL), and incubated for 3-4 h at 37° C. with aeration before use. All bacterial cultures were cultured without agitation, with the exception of P. aeruginosa ATCC 47085 and FADDI-PA067 which were cultured with shaking at 150 rpm. For A. baumannii, an aliquot of 0.5 mL was taken from the overnight culture tube, further diluted with LB (200 mL), and incubated overnight at 37° C. with aeration before use.
(§2) The 96-well plate was then incubated at 37° C. for 1.5 or 3 h. For each well, microbial solution was diluted with saline (0.9% NaCl solution) using an appropriate dilution factor and placed on a LB agar plate (LB broth containing 15 g/L Oxoid Blood Agar Base No. 2). For E. coli, K. pneumoniae, and A. Baumannii (ATCC 19606 and FADDI-AB156), the agar plates were incubated overnight at room temperature, and then at 37° C. with aeration for 2 h. For P. Aeruginosa (ATCC 47085 and FADDI-PA067), the agar plates were incubated at 37° C. with aeration. The number of colony-forming units (CFU) was counted and expressed as CFU/mL. Positive controls consisting of cells without any treatment were used. […] A minimum of two independent experiments (biological replicates) of the assay were conducted and three technical replicates were used in each experiment. Data is expressed as mean±standard deviation (SD) and analysed using student's t-test.

[2] = tested on: Pseudomonas aeruginosa (P. aeruginosa, ATCC 47085); test: S16-antibiotic co-administration, synergy by Bliss Independence and HSA models; assay type: cell-based; conditions: for Antimicrobial activity on co-administration with S16 compared to compounds alone (log change in CFU/mL): all compounds at MBC50; for Fold reduction of MBC: MBCeff with S16 versus MBC alone; for MBC in combination: S16 and antibiotic co-administered, each at MBC50; for Synergistic? (Yes/No) Bliss* / Synergistic? (Yes/No) HAS*: antibiotic in combination with S16; for Synergistic? (Yes/No) Bliss*: Bliss Independence model; for Synergistic? (Yes/No) HAS*: Highest Single Agent model
Description: as §2
(§3) The Bliss Independence and HSA models were used to calculate drug synergism. […] Biotechnol. 31, 160-165 (2013). With the Bliss Independence model, synergism was calculated using the formula, BICAB=A+B−AB (1), where A and B are the effects of the two drugs in isolation and BICAB is the combined effect of the two drugs as predicted by the Bliss Independence model. […] In the HSA model, if CAB is greater than the greater of A and B, CAB>max(A, B), synergy is observed. The quantitative effect of the compounds when administered alone (i.e., A and B) or in combination (i.e., CAB) was defined as the fractional reduction of the population, R=1−CFUt/CFU0, where CFUt is the CFU/mL measured after treatment, and CFU0 is the CFU/mL measured before treatment.

[3] = tested on: Acinetobacter baumannii (A. baumannii, ATCC 19606); test: as above; assay type: cell-based; conditions: for Interaction with S16 as evaluated by the Bliss Independence and HSA models (in words) / Antimicrobial activity on co-administration with S16 compared to compounds alone (log change in CFU/mL): A. baumannii wild-type; for Interaction with S16 as evaluated by the Bliss Independence and HSA models (in words): 3 h time point; for Antimicrobial activity on co-administration with S16 compared to compounds alone (log change in CFU/mL): all compounds at MBC50, t=3 h; for MBC in combination / Synergistic? (Yes/No) Bliss* / Synergistic? (Yes/No) HAS*: A. baumannii, 3 h; for MBC in combination: S16 and antibiotic co-administered, each at MBC50; for Synergistic? (Yes/No) Bliss* / Synergistic? (Yes/No) HAS*: antibiotic in combination with S16; for Synergistic? (Yes/No) Bliss*: Bliss Independence model; for Synergistic? (Yes/No) HAS*: Highest Single Agent model
Description: as §2, §3

[4] = tested on: Escherichia coli (E. coli, ATCC 25922); test: as above; assay type: cell-based; conditions: for MBC in combination: S16 and antibiotic co-administered, each at MBC50, 3 h; for Antimicrobial activity on co-administration with S16 compared to compounds alone (log change in CFU/mL): all compounds at MBC50, t=3 h; for Synergistic? (Yes/No) Bliss* / Synergistic? (Yes/No) HAS*: antibiotic in combination with S16, 3 h; for Synergistic? (Yes/No) Bliss*: Bliss Independence model; for Synergistic? (Yes/No) HAS*: Highest Single Agent model
Description: as §2, §3

[5] = tested on: Klebsiella pneumoniae (K. pneumoniae, ATCC 13883); test: as above; assay type: cell-based; conditions: for MBC in combination: S16 and antibiotic co-administered, each at MBC50, 3 h; for Antimicrobial activity on co-administration with S16 compared to compounds alone (log change in CFU/mL): all compounds at MBC50, t=3 h; for Synergistic? (Yes/No) Bliss* / Synergistic? (Yes/No) HAS*: antibiotic in combination with S16, 3 h; for Synergistic? (Yes/No) Bliss*: Bliss Independence model; for Synergistic? (Yes/No) HAS*: Highest Single Agent model
Description: as §2, §3

[6] = tested on: CMDR A. baumannii (FADDI-AB156); test: MBC determination (in vitro antimicrobial experiment, CFU counting); assay type: cell-based, Acinetobacter baumannii; conditions: compound alone
Description: as §1, §2

[7] = tested on: CMDR A. baumannii (FADDI-AB156); test: S16-antibiotic co-administration, synergy by Bliss Independence and HSA models; assay type: cell-based, Acinetobacter baumannii
Description: as §2, §3

[8] = tested on: Pseudomonas aeruginosa (P. aeruginosa, ATCC 47085); test: MBC determination (in vitro antimicrobial experiment, CFU counting); assay type: cell-based; conditions: compound alone, P. aeruginosa (wild-type)
Description: as §1, §2

[9] = tested on: Acinetobacter baumannii (A. baumannii, ATCC 19606); test: as above; assay type: cell-based; conditions: compound alone, A. baumannii (wild-type)
Description: as §1, §2

[10] = tested on: Escherichia coli (E. coli, ATCC 25922); test: as above; assay type: cell-based
Description: as §1, §2

[11] = tested on: Klebsiella pneumoniae (K. pneumoniae, ATCC 13883); test: as above; assay type: cell-based
Description: as §1, §2

[12] = tested on: CMDR A. baumannii (FADDI-AB156); test: Antibiogram of CMDR A. baumannii (MIC); assay type: cell-based, Acinetobacter baumannii; conditions: CMDR A. baumannii (FADDI-AB156); for MIC: read-out: MIC; for Susceptibility: interpreted by CLSI resistant breakpoints
[13] = tested on: CMDR P. aeruginosa (FADDI-PA067); test: Antibiogram of CMDR P. aeruginosa; assay type: cell-based, Pseudomonas aeruginosa; conditions: interpreted by CLSI resistant breakpoints

Compound	MBC [1] [µM]	Antimicrobial activity on co-administration with S16 compared to compounds alone (log change in CFU/mL) ([2]; P. aeruginosa wild-type, t=3 h)	MBC in combination ([2]; P. aeruginosa, 3 h) [µM]	Synergistic? (Yes/No) Bliss* ([2]; P. aeruginosa, 3 h)	Synergistic? (Yes/No) HAS* ([2]; P. aeruginosa, 3 h)	Interaction with S16 as evaluated by the Bliss Independence and HSA models (in words) [3]	Antimicrobial activity on co-administration with S16 compared to compounds alone (log change in CFU/mL) [3]	MBC in combination [3] [µM]	Synergistic? (Yes/No) Bliss* [3]	Synergistic? (Yes/No) HAS* [3]	MBC in combination [4] [µM]	Antimicrobial activity on co-administration with S16 compared to compounds alone (log change in CFU/mL) [4]	Synergistic? (Yes/No) Bliss* [4]	Synergistic? (Yes/No) HAS* [4]	MBC in combination [5] [µM]	Antimicrobial activity on co-administration with S16 compared to compounds alone (log change in CFU/mL) [5]	Synergistic? (Yes/No) Bliss* [5]	Synergistic? (Yes/No) HAS* [5]	MBC [8] [µM]	Susceptibility [12]	further results
CC1(C)S[C@@H]2[C@H](NC(=O)[C@H](N)c3ccccc3)C(=O)N2[C@H]1C(=O)O [Amp, ampicillin]	<1.4	significantly enhanced antimicrobial activity	2930.7	Yes	Yes	additive	significantly enhanced antimicrobial activity	1465.4	No	No	5.7	significantly enhanced antimicrobial activity	No	No	327.6	significantly enhanced antimicrobial activity	Yes	Yes	>5860.0	Resistant	MBC ([1]; Pseudomonas aeruginosa): < 1.4 µM; Interaction with S16 as evaluated by the Bliss Independence and HSA models (in words) ([2]; P. aeruginosa wild-type, 3 h time point): synergistic; Fold reduction of MBC ([2]; P. aeruginosa): > 16 fold; Fold reduction of MBC ([2]; P. aeruginosa, listed as ampicillin): more than 16 fold; reduction (printed in parentheses beside fold reduction of MBC) ([2]; P. aeruginosa, antibiotic co-administered with S16): 99.9%; MBC in combination, MBCeff ([2]; P. aeruginosa, co-administered S16 (at MBC50) and antibiotic, antibiotic concentration giving at least 2-log reduction in CFU/mL, 3 h): 366.3^a μM; Interaction with S16 as evaluated by the Bliss Independence and HSA models (in words) ([4]; 3 h time point): additive; Interaction with S16 as evaluated by the Bliss Independence and HSA models (in words) ([5]; 3 h time point): synergistic; MBC ([6]; Acinetobacter baumannii): > 2930 µM; Interaction with S16 as evaluated by the Bliss Independence and HSA models (in words) ([7]; 3 h time point): synergistic; MBC in combination ([7]; S16 and antibiotic co-administered, each at MBC50, 3 h): 2930.7 µM; Antimicrobial activity on co-administration with S16 compared to compounds alone (log change in CFU/mL) ([7]; all compounds at MBC50, t=3 h): Enhanced antimicrobial activity; Synergistic? (Yes/No) Bliss* ([7]; antibiotic in combination with S16, 3 h, Bliss Independence model): Yes; Synergistic? (Yes/No) HAS* ([7]; antibiotic in combination with S16, 3 h, Highest Single Agent model): Yes; MBC ([8]; Pseudomonas aeruginosa, ATCC47085): > 5860 µM; MBC ([9]; Acinetobacter baumannii, ATCC19606): > 2930 µM; MBC ([10]; Escherichia coli, ATCC25922, compound alone): 9.4 µM (≈ 3.28 µg/mL); MBC ([11]; Klebsiella pneumoniae, ATCC13883, compound alone): 655 µM (≈ 229 µg/mL); MIC ([12]; Acinetobacter baumannii): > 2930 µM
gentamicin	<1.1	did not result in any significant change in activity	1.2	No	No	non-synergistic	did not result in any significant change in activity	6.0	Yes	No	2.2	enhanced efficacy	Yes	Yes	1.1	enhanced efficacy	Yes	Yes	2.4	Resistant	Antimicrobial activity on co-administration with S16 compared to compounds alone (log change in CFU/mL) ([2]; P. aeruginosa, t=1.5 h): enhancement in efficacy; MBC [6]: >1104.5 µM; Susceptibility [13]: Resistant; MBC [9]: 12.1 µM; MBC ([10]; compound alone): 3.7 µM; MBC ([11]; compound alone): 2.2 µM; MIC [12]: >1104.5 µM
